In US20230272077A1, “PD-1 SIGNAL INHIBITOR COMBINATION THERAPY” (KYOTO UNIVERSITY, priority 2015, published 2023):
Entries after “also recorded” stand apart in the source; their conditions may differ.

Legend:
[1] = system: MC38; assay: Mouse therapy model, MC38-bearing mice (tumor volume, survival); type: in vivo; settings: MC38-bearing mice; for enhancement of antitumor effect of PD-L1 antibody (tumor volume) / survival rate: reagent combined with PD-L1 antibody vs PD-L1 antibody alone
Procedure: MC38 (5×10^5) and MethA (5×10^5) cells were intradermally injected on the right flank. MC38 was inoculated into C57BL/6 mice and MethA was inoculated into BALB/c mice. For monotherapy, mice were intraperitoneally injected with 150 μg of PD-L1 mouse antibody (1-111A) (prepared by the laboratory of the present inventors) 5 days after the tumor inoculation. Therapy with PD-L1 antibody alone was repeated three times every 5 days. For combination therapy, administration of PD-L1 antibody and chemical agents started 7 days after tumor injection. Chemical agents were injected at a regular interval of 2 days and PD-L1 antibody at a regular interval of 5 days (shown in FIG. 3b). Tumors were measured on every alternate day, and tumor volumes were calculated using the formula for typical ellipsoid, π×(length×breadth×height/6).
The following chemical reagents were used at the indicated concentrations for combination therapy. AMPK activator: A769662, 6 mg/kg (Abcam); mTOR activator: MHY1485, 3 μg/kg (Sigma-Aldrich); uncoupler: carbonylcyanide-p-trifluoromethoxyphenylhydrazone (FCCP), 1.2 mg/kg (Abcam); uncoupler: 2,4-Dinitrophenol (DNP), 1.7 mg/kg (Aldrich); SIRT1 activator: resveratrol, 0.5 mg/kg (Abcam); ROS scavenger: Mn (III) tetrakis (4-benzoic acid) porphyrin (MnTBAP), 1.25 mg/kg (Calbiochem); ROS generator: tert-butyl hydroperoxide solution (Luperox TBH70X), 200 μL/kg (Sigma-Aldrich); ATP synthase inhibitor: oligomycin, 250 μg/kg (Sigma-Aldrich); paraquat 2 mg/kg (Nakalai Tesque); oltipraz 1.9 mg/kg (Sigma); bezafibrate 1 mg/kg (ChemCruz).
All reagents were freshly prepared just before use. Each reagent was dissolved in the solvent indicated in the instructions. Note that the AMPK activator, mTOR activator, uncouplers and SIRT1 activator were prepared from fresh unused vials in each series of experiments. Dissolved reagents were diluted in PBS, and a 200 l aliquot was injected per mouse.
Murine colon adenocarcinoma MC38 cells (5×10^5) were inoculated into C57BL/6 mice. After 7 days, anti-PD-L1 antibody (1-111A, 150 μg) and AMPK inhibitor (Compound C: 200 μg in BBS, 200 μL) were administered intraperitoneally. Anti-PD-L1 antibody was administered 3 times at a regular interval of 6 days; Compound C (C.C) was administered 7 times at a regular interval 2 days.
MC38 cells (5×10^5) were inoculated into C57BL/6 mice. After 7 days, anti-PD-L1 antibody (1-111A, 150 μg) and PGC-1α/transcription factor complex activator (2-(4-{2-[(4-chlorobenzoyl)amino]ethyl}phenoxy)-2-methylpropanoic acid (bezafibrate): 10 ug in PBS, 200 ul) were administered intraperitoneally. Anti-PD-L1 antibody was administered 3 times at a regular interval of 6 days; bezafibrate was administered 7 times at a regular interval 2 days.

[2] = system: RENCA; assay: RENCA-bearing BALB/c mice (tumor volume); type: in vivo, mouse; settings: RENCA in BALB/c mice, combined with anti-PD-L1 antibody
Procedure: Murine renal cell carcinoma RENCA cells (2×10^6) were inoculated into BALB/c mice. After 7 days, anti-PD-L1 antibody (1-111A, 150 μg) and AMPK inhibitor (Compound C: 200 μg in BBS, 200 l) were administered intraperitoneally. Anti-PD-L1 antibody was administered 3 times at a regular interval of 6 days; Compound C (C.C) was administered 7 times at a regular interval 2 days. Tumor volumes (mm^3) from day 0 to day 25 of RENCA inoculation are shown.

[3] = system: AMPK and its associated proteins ACC and SIRT1; assay: Western blotting of DLN CD8+ T cells, AMPK pathway; type: in vivo, mouse; settings: CD8+ T cells from mice treated with PD-L1 antibody and reagent
Procedure: (§1) FIG. 7. […] Phosphorylation of AMPK, ACC, mTOR and S6K and the expression of SIRT1 and 4EBP1 were analyzed by Western blotting. b) MC38-bearing mice were treated with PD-L1 antibody in combination with AMPK activator (A769662) and/or mTOR activator (MHY1485) according to the same schedule as shown in FIG. 3b.
(§2) CD8^+ T cells were isolated using mouse CD8 Microbeads (Miltenyi Biotec). After washing with PBS twice, 2×10^6 cells were solubilized in a lysis buffer containing 30 mM Tris-HCl (pH.7.4), 150 mM NaCl, 10% glycerol, 0.1% SDS, 1% Triton-X-100, 0.05% Na-Doc, 5 mM EDTA (pH.8.0), protease inhibitor mixture (Roche Molecular Biochemicals) and phosphatase inhibitors (Nacalai Tesque). After measurement of protein concentrations by DC protein assay (Bio-Rad), 4 μg of proteins was mounted on 4 to 20% gradient Mini-PROTEAN TGX Gels (Bio-Rad) and electroblotted onto nitrocellulose membranes, which were then incubated in a blocking buffer of TBS containing 1% BSA. Primary antibody incubations were carried out overnight at 4° C. in blocking buffer. After washing, secondary antibody incubations were carried out at room temperature for 40 min in blocking buffer. Blots were developed with enhanced chemiluminescence (Amersham Pharmacia). […]

[4] = system: mTOR and its associated proteins S6K and 4EBP1; assay: Western blotting of DLN CD8+ T cells, mTOR pathway; type: in vivo, mouse; settings: CD8+ T cells from mice treated with PD-L1 antibody and reagent
Procedure: as §1, §2

[5] = used in 1930's; cited from earlier work
[6] = system: T-bet and Eomes; assay: T-bet and Eomes expression by flow cytometry in DLN CD8+ T cells; type: in vivo, mouse; settings: combined with PD-L1 antibody
Procedure: (§3) FIG. 15. […] Data represent the means±SEM of five mice. *p<0.05, **p<0.01, one-way ANOVA.
(§4) The following antibodies recognizing the indicated antigens were used: CD44 (1M7), CD45.2 (104), CD45.1 (A20), CD8 (53-6.7), CD62L (MEL-14), T-bet (4B/O) and IFN-7 (XMG1.2), MHC class I (AF6-88.5), CD155 (Tx56) and VISTA (MIH63) from BioLegend; p-AMPK (EPR5683) from Ancam; p-mTOR (MRRBY), Eomes (Danllmag) and PD-L1 (M1H5) from eBioscience. All flow cytometry experiments were performed on a FACS Canto II (BD Biosciences) and analyzed using FlowJo software (FLOWJO, LLC). For assessment of intracellular phosphoproteins, cells were permeabilized with 0.5% Triton-X and fixed with 1.5% PFA before staining. Determination of mitochondrial mass, membrane potential, mitochondrial superoxide and cellular ROS was performed using MitoTracker Green, Mito-Tracker Deep Red, MitoSOX Red, and CellROX Green reagents, respectively (all from Life Technologies). These dyes were added to cells to a final concentration of 0.125 μM, 0.125 μM, 5.0 μM and 0.625 μM, respectively, and incubated at 37° C. in a 5% CO2 humidified incubator for 30 min.

[7] = system: IFN-γ; assay: Intracellular IFN-γ staining of CD8+ T cells from digested tumor tissues; type: in vivo, mouse; settings: CD8+ T cells in tumors; combined with PD-L1 antibody
Procedure: as §3, §4

| SMILES | enhancement of antitumor effect of PD-L1 antibody (tumor volume) [1] | enhancement of antitumor effect of PD-L1 antibody (tumor volume) ([1]; listed as compound C) | enhancement of efficacy of anti-PD-L1 antibody therapy (tumor volume) [2] | enhancement of efficacy of anti-PD-L1 antibody therapy (tumor volume) ([2]; listed as compound C) | antitumor activity of triple combination of PD-L1 antibody, DNP and Luperox ([1]; DNP and Luperox both with PD-L1 antibody) | antitumor effect when administered alone ([1]; reagent alone, no PD-L1 antibody, tumor volume) | survival rate [1] | activation of AMPK and its associated proteins ACC and SIRT1 [3] | activation of mTOR and its associated proteins S6K and 4EBP1 [4] | health problems in use as diet supplement [5] | enhancement of antitumor effect of PD-L1 antibody (tumor volume) ([1]; listed as PGC-1α/transcription factor complex activator) | Eomes expression [6] | T-bet expression [6] | IFN-γ production [7] |
| --- | --- | --- | --- | --- | --- | --- | --- | --- | --- | --- | --- | --- | --- | --- |
| c1cc(-c2cnn3cc(-c4ccc(OCCN5CCCCC5)cc4)cnc23)ccn1 [AMPK inhibitor, 6-[4-[2-(1-Piperidinyl)ethoxy]phenyl]-3-(4-pyridinyl)pyrazolo[1,5-a]pyrimidine] | enhances the efficacy of anti-PD-L1 antibody therapy | Synergistic effect | enhances the efficacy of anti-PD-L1 antibody therapy | Synergistic effect |  |  |  |  |  |  |  |  |  |  |
| O=[N+]([O-])c1ccc(O)c([N+](=O)[O-])c1 [DNP, 2,4-dinitrophenol] | augmented the efficacy of PD-L1 antibody therapy; also recorded: enhance the antitumor effect of PD-L1 antibody |  |  |  | stronger antitumor activity; also recorded: Antitumor effect is enhanced | failed to exhibit any antitumor effect | remarkably improved the survival rate | activated | also found to be activated | caused severe health problems |  |  |  |  |
| CC(C)(Oc1ccc(CCNC(=O)c2ccc(Cl)cc2)cc1)C(=O)O [bezafibrate, 2-(4-{2-[(4-chlorobenzoyl)amino]ethyl}phenoxy)-2-methylpropanoic acid] | enhanced the tumor growth inhibitory effect of PD-L1 antibody; also recorded: synergize with PD-L1 antibody; also recorded: Synergistic effect |  |  |  |  |  | improved the survival rate |  |  |  | enhances the efficacy of anti-PD-L1 antibody therapy | reduced Eomes | increased T-bet; also recorded: activated T-bet; also recorded: up-regulated | increased; also recorded: up-regulated |
